Assay results published in the supplement of paper PMC10307832.

Experiments:
Experiment in all cases: relative viability (nuclei count vs DMSO), 5 days (fraction); higher = more cells survive
SGI-1776 + Phenformin = compound: CN1CCC(CNc2ccc3ncc(-c4cccc(OC(F)(F)F)c4)n3n2)CC1 [SGI-1776] + N=C(N)NC(=N)NCCc1ccccc1 [Phenformin] (partner 250 µM)
How it was run: (§1)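 For relative viability, nuclei counts in treated wells were divided by those in vehicle wells. Lung cancer cell lines had been pin-tool dosed in 1536-well plates the day after seeding and cultured for 5 days, then fixed and stained in one step (final 0.05% Triton X-100, 1% formaldehyde, 1 ug/ml Hoechst) and imaged at 4×. Doses were one drug alone or a fixed anchor-drug dose plus five library-drug doses (not always all listed) in √10 steps, and values are duplicate-plate medians.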

[1] = compound: C1COCCN1C2=NC(=NC3=C2OC4=C3C=CC=N4)C5=CC(=CC=C5)NC(=O)C6=CN=C(C=C6)N + N=C(N)NC(=N)NCCc1ccccc1 [Phenformin] (partner 250 µM)
How it was run: as §1

SGI-1776 + Bortezomib = compound: CN1CCC(CNc2ccc3ncc(-c4cccc(OC(F)(F)F)c4)n3n2)CC1 [SGI-1776] + CC(C)C[C@H](NC(=O)[C@H](Cc1ccccc1)NC(=O)c1cnccn1)B(O)O [Bortezomib] (partner 0.002 µM)
How it was run: as §1

Entinostat + Pictilisib = compound: Nc1ccccc1NC(=O)c1ccc(CNC(=O)OCc2cccnc2)cc1 [Entinostat] + CS(=O)(=O)N1CCN(Cc2cc3nc(-c4cccc5[nH]ncc45)nc(N4CCOCC4)c3s2)CC1 [Pictilisib] (partner 1 µM)
How it was run: as §1

In the case of UMC-11, the relative viability (SGI-1776 + Phenformin; first compound 0.08 µM) is reported as 0.31, the relative viability (SGI-1776 + Phenformin; first compound 0.8 µM) is reported as 0.322 and the relative viability (SGI-1776 + Phenformin; first compound 2.53 µM) is reported as 0.302. For the same cell line, the relative viability (SGI-1776 + Phenformin; first compound 8 µM) was 0.252, the relative viability ([1]; first compound 0.02 µM) was 0.302 and the relative viability ([1]; first compound 0.06325 µM) was 0.327. The relative viability ([1]; first compound 0.2 µM) was 0.33, the relative viability ([1]; first compound 0.6325 µM) was 0.308 and the relative viability ([1]; first compound 2 µM) was 0.204. It also gave a relative viability (SGI-1776 + Bortezomib; first compound 0.08 µM) of 0.741, a relative viability (SGI-1776 + Bortezomib; first compound 0.8 µM) of 0.809 and a relative viability (SGI-1776 + Bortezomib; first compound 2.53 µM) of 0.647. For the same cell line, the relative viability (SGI-1776 + Bortezomib; first compound 8 µM) was 0.688, the relative viability (Entinostat + Pictilisib; first compound 0.02 µM) was 0.865 and the relative viability (Entinostat + Pictilisib; first compound 0.06325 µM) was 0.848. The relative viability (Entinostat + Pictilisib; first compound 0.2 µM) was 0.836, the relative viability (Entinostat + Pictilisib; first compound 0.6325 µM) was 0.144 and the relative viability (Entinostat + Pictilisib; first compound 2 µM) was 0.136.
